According to patent publication US4818761A, “2-(4-pyridylaminomethyl)-benzimidazole derivatives having antiviral activity” (priority 1986, dated 1989):
In brackets after ≈: the same amount, converted by molar mass.

Test system: coxsackievirus type B4 (CB4)
Assay: Inhibition of CB4 plaque formation in LLC-MK2 cells
Type: cell-based
Conditions: CI = CD50 (LLC-MK2)/IC50 (plaque)

| SMILES | CI CB4 (C)/(A) |
| --- | --- |
| Cn1c(CNc2ccncc2)nc2cc(Cl)ccc21 [XXXVIII] | > 2 |
| CC(C)c1ccc2[nH]c(CNc3ccncc3)nc2c1 [VI] | > 15 |
| Fc1ccccc1-n1c(CNc2ccncc2)nc2ccccc21 [LVII] | 233 |
| CCCn1c(CNc2ccncc2)nc2ccccc21 [XII] | > 4,255 |
| Brc1ccc2[nH]c(CNc3ccncc3)nc2c1 [I, 2-(4-pyridylaminomethyl)-5-(6)-bromobenzimidazole] | 17 |
| Cl.Fc1cccc(-n2c(CNc3ccncc3)nc3ccccc32)c1 [LVIII, 1-(3-fluorophenyl)-2-(4-pyridylaminomethyl)benzimidazole hydrochloride] | > 278 |
| Cc1cc2nc(CNc3ccncc3)[nH]c2cc1Br [XXVIII] | 13 |
| Cc1ccc(-n2c(CNc3ccncc3)nc3ccccc32)cc1F [LXXI] | > 31 |

Same assay, conditions: Coxsackievirus; plaque reduction, LLC-MK2 cells, 37° C.

| SMILES | IC50 |
| --- | --- |
| Cn1c(CNc2ccncc2)nc2cc(Cl)ccc21 [XXXVIII] | 56 µg/mL (≈ 205 µM) |
| CC(C)c1ccc2[nH]c(CNc3ccncc3)nc2c1 [VI] | 69 µg/mL (≈ 259 µM) |
| Fc1ccccc1-n1c(CNc2ccncc2)nc2ccccc21 [LVII] | 8.6 µg/mL (≈ 27 µM) |
| CCCn1c(CNc2ccncc2)nc2ccccc21 [XII] | 0.47 µg/mL (≈ 1.76 µM) |
| Brc1ccc2[nH]c(CNc3ccncc3)nc2c1 [I, 2-(4-pyridylaminomethyl)-5-(6)-bromobenzimidazole] | 18 µg/mL (≈ 59.4 µM) |
| Cl.Fc1cccc(-n2c(CNc3ccncc3)nc3ccccc32)c1 [LVIII, 1-(3-fluorophenyl)-2-(4-pyridylaminomethyl)benzimidazole hydrochloride] | 3.6 µg/mL |
| Cc1cc2nc(CNc3ccncc3)[nH]c2cc1Br [XXVIII] | 13.5 µg/mL (≈ 42.6 µM) |
| Cc1ccc(-n2c(CNc3ccncc3)nc3ccccc32)cc1F [LXXI] | 3.2 µg/mL (≈ 9.63 µM) |

Test system: not listed separately
Assay: in vitro
Conditions: human, hela cells

| SMILES | CC50 |
| --- | --- |
| CC(C)c1ccc2[nH]c(CNc3ccncc3)nc2c1 [VI] | 56.2 µg/mL (≈ 211 µM) |
| Fc1ccccc1-n1c(CNc2ccncc2)nc2ccccc21 [LVII] | > 100 µg/mL |
| Brc1ccc2[nH]c(CNc3ccncc3)nc2c1 [I, 2-(4-pyridylaminomethyl)-5-(6)-bromobenzimidazole] | 17.8 µg/mL (≈ 58.7 µM) |
| Cl.Fc1cccc(-n2c(CNc3ccncc3)nc3ccccc32)c1 [LVIII, 1-(3-fluorophenyl)-2-(4-pyridylaminomethyl)benzimidazole hydrochloride] | > 100 µg/mL |
| Cc1ccc(-n2c(CNc3ccncc3)nc3ccccc32)cc1F [LXXI] | > 100 µg/mL |

Test system: enterovirus type 70 (EV70)
Assay: Inhibition of EV70 plaque formation in LLC-MK2 cells
Type: cell-based
Conditions: CI = CD50 (LLC-MK2)/IC50 (plaque)

| SMILES | CI EV70 (C)/(A) |
| --- | --- |
| CC(C)c1ccc2[nH]c(CNc3ccncc3)nc2c1 [VI] | > 476 |
| Fc1ccccc1-n1c(CNc2ccncc2)nc2ccccc21 [LVII] | 83 |
| CCCn1c(CNc2ccncc2)nc2ccccc21 [XII] | > 465 |
| Brc1ccc2[nH]c(CNc3ccncc3)nc2c1 [I, 2-(4-pyridylaminomethyl)-5-(6)-bromobenzimidazole] | 101 |
| Cl.Fc1cccc(-n2c(CNc3ccncc3)nc3ccccc32)c1 [LVIII, 1-(3-fluorophenyl)-2-(4-pyridylaminomethyl)benzimidazole hydrochloride] | > 200 |
| Cc1cc2nc(CNc3ccncc3)[nH]c2cc1Br [XXVIII] | 88 |
| Cc1ccc(-n2c(CNc3ccncc3)nc3ccccc32)cc1F [LXXI] | > 25 |

Same assay, conditions: Enterovirus D; plaque reduction, LLC-MK2 cells, 33° C.

| SMILES | IC50 |
| --- | --- |
| Cn1c(CNc2ccncc2)nc2cc(Cl)ccc21 [XXXVIII] | 115 µg/mL (≈ 422 µM) |
| CC(C)c1ccc2[nH]c(CNc3ccncc3)nc2c1 [VI] | 2.1 µg/mL (≈ 7.88 µM) |
| Fc1ccccc1-n1c(CNc2ccncc2)nc2ccccc21 [LVII] | 24.1 µg/mL (≈ 75.7 µM) |
| CCCn1c(CNc2ccncc2)nc2ccccc21 [XII] | 4.3 µg/mL (≈ 16.1 µM) |
| Brc1ccc2[nH]c(CNc3ccncc3)nc2c1 [I, 2-(4-pyridylaminomethyl)-5-(6)-bromobenzimidazole] | 3.1 µg/mL (≈ 10.2 µM) |
| Cl.Fc1cccc(-n2c(CNc3ccncc3)nc3ccccc32)c1 [LVIII, 1-(3-fluorophenyl)-2-(4-pyridylaminomethyl)benzimidazole hydrochloride] | 5 µg/mL |
| Cc1cc2nc(CNc3ccncc3)[nH]c2cc1Br [XXVIII] | 2 µg/mL (≈ 6.31 µM) |
| Cc1ccc(-n2c(CNc3ccncc3)nc3ccccc32)cc1F [LXXI] | 4 µg/mL (≈ 12 µM) |

Test system: not listed separately
Assay: Cytotoxicity, morphology of LLC-MK2 cells
Conditions: monkey

| SMILES | CC50 |
| --- | --- |
| Cn1c(CNc2ccncc2)nc2cc(Cl)ccc21 [XXXVIII] | > 100 µg/mL |
| Cc1cc2nc(CNc3ccncc3)[nH]c2cc1Br [XXVIII] | 177 µg/mL (≈ 557 µM) |

Test system: poliovirus type 2 (Polio2)
Assay: microbe, parasite or virus in culture
Type: cell-based
Conditions: CI = CD50 (LLC-MK2)/IC50 (plaque)

| SMILES | CI Polio2 (C)/(A) |
| --- | --- |
| CCCn1c(CNc2ccncc2)nc2ccccc21 [XII] | > 556 |
| Cc1cc2nc(CNc3ccncc3)[nH]c2cc1Br [XXVIII] | 5 |

Same assay, conditions: Enterovirus C, LLC-MK2, read-out: IC50 Polio2

| SMILES | IC50 |
| --- | --- |
| Cn1c(CNc2ccncc2)nc2cc(Cl)ccc21 [XXXVIII] | > 100 µg/mL |
| CC(C)c1ccc2[nH]c(CNc3ccncc3)nc2c1 [VI] | > 100 µg/mL |
| Fc1ccccc1-n1c(CNc2ccncc2)nc2ccccc21 [LVII] | > 100 µg/mL |
| CCCn1c(CNc2ccncc2)nc2ccccc21 [XII] | 3.6 µg/mL (≈ 13.5 µM) |
| Brc1ccc2[nH]c(CNc3ccncc3)nc2c1 [I, 2-(4-pyridylaminomethyl)-5-(6)-bromobenzimidazole] | > 25 µg/mL |
| Cl.Fc1cccc(-n2c(CNc3ccncc3)nc3ccccc32)c1 [LVIII, 1-(3-fluorophenyl)-2-(4-pyridylaminomethyl)benzimidazole hydrochloride] | > 100 µg/mL |
| Cc1cc2nc(CNc3ccncc3)[nH]c2cc1Br [XXVIII] | 34 µg/mL (≈ 107 µM) |
| Cc1ccc(-n2c(CNc3ccncc3)nc3ccccc32)cc1F [LXXI] | > 50 µg/mL |

Test system: rhinovirus type 14 (HRV14)
Assay: Inhibition of HRV14 plaque formation in HeLa cells
Type: cell-based
Conditions: CI = CD50 (HeLa)/IC50 (plaque)

| SMILES | CI HRV14 (D)/(B) |
| --- | --- |
| CC(C)c1ccc2[nH]c(CNc3ccncc3)nc2c1 [VI] | 3 |
| Brc1ccc2[nH]c(CNc3ccncc3)nc2c1 [I, 2-(4-pyridylaminomethyl)-5-(6)-bromobenzimidazole] | 3 |
| Cc1cc2nc(CNc3ccncc3)[nH]c2cc1Br [XXVIII] | 15 |
| Cc1ccc(-n2c(CNc3ccncc3)nc3ccccc32)cc1F [LXXI] | > 2 |

Same assay, conditions: Enterovirus, HRV14; plaque reduction, HeLa cells, 33° C.

| SMILES | IC50 |
| --- | --- |
| Cn1c(CNc2ccncc2)nc2cc(Cl)ccc21 [XXXVIII] | > 50 µg/mL |
| CC(C)c1ccc2[nH]c(CNc3ccncc3)nc2c1 [VI] | 16.5 µg/mL (≈ 61.9 µM) |
| CCCn1c(CNc2ccncc2)nc2ccccc21 [XII] | > 50 µg/mL |
| Brc1ccc2[nH]c(CNc3ccncc3)nc2c1 [I, 2-(4-pyridylaminomethyl)-5-(6)-bromobenzimidazole] | 5.8 µg/mL (≈ 19.1 µM) |
| Cc1cc2nc(CNc3ccncc3)[nH]c2cc1Br [XXVIII] | 3.6 µg/mL (≈ 11.3 µM) |
| Cc1ccc(-n2c(CNc3ccncc3)nc3ccccc32)cc1F [LXXI] | 49.7 µg/mL (≈ 150 µM) |

Test system: CB4 strain 637
Assay: Anti-coxsackievirus activity in vivo, CB4-induced hypoglycemia in SJL/J mice
Conditions: single, daily intraperitoneal doses as low as 20 mg/kg, initiated 2 hr after infection and continued for 5 days
Protocol: Anti-coxsackievirus activity, in vivo. Compound No. XII and XXI were examined for its activity against CB4-induced hypoglycemia in SJL/J mice. […] Blood specimens were collected from the tail vein of each mouse before and 2, 3, 4 and 5 days after infection for assaying its plasma glucose levels. The differences in mean relative plasma glucose of uninfected control and compound-treated groups or placebo groups were evaluated by Student's t-test.

| SMILES | onset of CB4-induced hypoglycemia |
| --- | --- |
| CCCn1c(CNc2ccncc2)nc2ccccc21 [XII] | inhibited the onset of CB4-induced hypoglycemia |

Test system: rhinovirus type 14 (HRV14)
Assay: Inhibition of HRV14 cytopathogenic effect (CPE) in HeLa cells
Type: cell-based
Conditions: Enterovirus, HRV14; * Virus CPE inhibition assay, HeLa cells, 33° C.

| SMILES | IC50 |
| --- | --- |
| Fc1ccccc1-n1c(CNc2ccncc2)nc2ccccc21 [LVII] | > 100 µg/mL |
| Cl.Fc1cccc(-n2c(CNc3ccncc3)nc3ccccc32)c1 [LVIII, 1-(3-fluorophenyl)-2-(4-pyridylaminomethyl)benzimidazole hydrochloride] | > 100 µg/mL |

Test system: not listed separately
Assay: Cytotoxicity, morphology of HeLa cells
Conditions: human

| SMILES | CC50 |
| --- | --- |
| Cc1cc2nc(CNc3ccncc3)[nH]c2cc1Br [XXVIII] | 56.2 µg/mL (≈ 177 µM) |

Test system: not listed separately
Assay: in vitro
Conditions: monkey, llc-mk2 cells

| SMILES | CC50 |
| --- | --- |
| CC(C)c1ccc2[nH]c(CNc3ccncc3)nc2c1 [VI] | > 1000 µg/mL |
| Fc1ccccc1-n1c(CNc2ccncc2)nc2ccccc21 [LVII] | 2000 µg/mL (≈ 6280 µM) |
| CCCn1c(CNc2ccncc2)nc2ccccc21 [XII] | > 2000 µg/mL |
| Brc1ccc2[nH]c(CNc3ccncc3)nc2c1 [I, 2-(4-pyridylaminomethyl)-5-(6)-bromobenzimidazole] | 312 µg/mL (≈ 1030 µM) |
| Cl.Fc1cccc(-n2c(CNc3ccncc3)nc3ccccc32)c1 [LVIII, 1-(3-fluorophenyl)-2-(4-pyridylaminomethyl)benzimidazole hydrochloride] | > 1000 µg/mL |
| Cc1ccc(-n2c(CNc3ccncc3)nc3ccccc32)cc1F [LXXI] | > 100 µg/mL |
